Experimental data published in BindingDB's records for doi:10.1016/j.ejmech.2016.05.044 (Texas A&M University, 2016).

Experiment: Negative allosteric modulator activity at CB1 receptor (unknown origin) expressed in HEK293 cell membrane assessed as reduction in CP55,940-induced [35S]GTPgammaS binding by measuring EC50 of CP55,940 at 3.2 uM incubated for 60 mins by liquid scintillation counting analysis (Rvb = 4.7 nM)

| Compound | EC50 |
| --- | --- |
| CCCCCc1c(C(=O)NCCc2ccc(C(=O)c3ccccc3)cc2)[nH]c2ccc(Cl)cc12 | 7.9 nM |
| CCc1c(C(=O)NCCc2ccc(C(=O)c3ccccc3)cc2)[nH]c2ccc(Cl)cc12 | 2.7 nM |
| CN(C)c1ccc(CCNC(=O)c2[nH]c3ccc(Cl)cc3c2CN=[N+]=[N-])cc1 | 1.2 nM |
| CCCCCCc1c(C(=O)NCCc2ccc(N=[N+]=[N-])cc2)[nH]c2ccc(Cl)cc12 | 2.1 nM |
